This is an account of results in US8841321B2, “Quinoline derivatives as antibacterial agents” (Janssen Pharmaceutica NV, priority 2005, dated 2014).

Test [1] relates to STA 29213 (Staphylococcus aureus (ATCC29213)). Kind of test: Microtitre plate assay, IC90 determination. Format: cell-based. The settings on record: Staphylococcus aureus (ATCC29213). Here is the method:
(§1) The bacteria used in this study were grown overnight in flasks containing 100 ml Mueller-Hinton Broth (Becton Dickinson—cat. no. 275730) in sterile de-ionized water, with shaking, at 37° C. Stocks (0.5 ml/tube) were stored at −70° C. until use. Bacteria titrations were performed in microtiter plates and colony forming units (CFUs) were determined. In general, an inoculum level of approximately 100 CFUs was used for susceptibility testing.
(§2) Flat-bottom, sterile 96-well plastic microtiter plates were filled with 180 μl of sterile deionized water, supplemented with 0.25% BSA. Subsequently, stock solutions (7.8× final test concentration) of compounds were added in 45 μl volumes in column 2. Serial five-fold dilutions (45 μl in 180 μl) were made directly in the microtiter plates from column 2 to reach column 11. Untreated control samples with (column 1) and without (column 12) inoculum were included in each microtiter plate. Depending on the bacteria type, approximately 10 to 60 CFU per well of bacteria inoculum (100 TCID50), in a volume of 100 μl in 2.8× Mueller-Hinton broth medium, was added to the rows A to H, except column 12. The same volume of broth medium without inoculum was added to column 12 in row A to H. The cultures were incubated at 37° C. for 24 hours under a normal atmosphere (incubator with open air valve and continuous ventilation). At the end of incubation, one day after inoculation, the bacterial growth was quantitated fluorometrically. Therefore resazurin (0.6 mg/ml) was added in a volume of 20 μl to all wells 3 hours after inoculation, and the plates were re-incubated overnight. A change in colour from blue to pink indicated the growth of bacteria. The fluorescence was read in a computer-controlled fluorometer (Cytofluor Biosearch) at an excitation wavelength of 530 nm and an emission wavelength of 590 nm. The % growth inhibition achieved by the compounds was calculated according to standard methods. The IC90 (expressed in μg/ml) was defined as the 90% inhibitory concentration for bacterial growth.

Test [2] relates to SPN 6305 (Streptococcus pneumoniae (ATCC6305)). Kind of test: Microtitre plate assay, IC90 determination. Conditions: Streptococcus pneumoniae (ATCC6305). It counts as cell-based. As for the experimental part:
as §1, §2

SMILES strings stand for the structures. Values after ≈ are worked out from the molar mass of the structure shown.

`COc1nc2ccc(Br)cc2cc1C(c1ccccc1)C(O)(CCCCN(C)C)CCc1ccco1` (single isomer, unassigned) [Compound 129]: the “IC90 (μg/ml) STA 29213” value in test [1] came to 6.19 µg/mL (≈ 11.2 µM). Besides, the “IC90 (μg/ml) SPN 6305” value in test [2] was 1.74 µg/mL (≈ 3.15 µM).
The corresponding values for `COc1nc2ccc(Br)cc2cc1C(c1ccccc1)C(O)(CCCCN(C)C)CCc1ccco1` (single isomer, unassigned) [Compound 130] are 8.74 µg/mL (≈ 15.8 µM) and 6.19 µg/mL (≈ 11.2 µM).
For `COc1nc2ccc(Br)cc2cc1C(c1ccccc1)C(O)(CCCCN1CCN(C)CC1)CCc1cccc2ccccc12` (single isomer, unassigned) [Compound 143], in test [1], the “IC90 (μg/ml) STA 29213” value came to 10.57 µg/mL (≈ 15.9 µM). Further, in test [2], the “IC90 (μg/ml) SPN 6305” value came out at 10.57 µg/mL (≈ 15.9 µM).
Take `COc1nc2ccc(Br)cc2cc1C(c1ccccc1)C(O)(CCCCN1CCCCC1)CCCc1ccccc1` (single isomer, unassigned) [Compound 146]: in test [1], the “IC90 (μg/ml) STA 29213” value turned out to be 9.76 µg/mL (≈ 15.9 µM). Also, in test [2], the “IC90 (μg/ml) SPN 6305” value is 5.49 µg/mL (≈ 8.92 µM).
For `COc1nc2ccc(Br)cc2cc1C(c1ccccc1)C(O)(CCCCc1ccccc1)CCCCN(C)C` (single isomer, unassigned) [Compound 147] the same measures were 9.34 µg/mL (≈ 15.8 µM) and 9.34 µg/mL (≈ 15.8 µM).
Take `COc1nc2ccc(Br)cc2cc1C(c1ccccc1)C(O)(CCCCc1ccccc1)CCCCN1CCCCC1` (single isomer, unassigned) [Compound 148]: the “IC90 (μg/ml) STA 29213” value in test [1] is 1.99 µg/mL (≈ 3.16 µM). The “IC90 (μg/ml) SPN 6305” value in test [2] was 2.23 µg/mL (≈ 3.54 µM).
The corresponding values for `COc1nc2ccc(Br)cc2cc1C(c1ccccc1)C(O)(CCCCc1ccccc1)CCCCN1CCCCC1` (single isomer, unassigned) [Compound 149] are 1.99 µg/mL (≈ 3.16 µM) and 2.23 µg/mL (≈ 3.54 µM).
The corresponding values for `CNCCCCCC(O)(c1ccccc1)C(c1ccccc1)c1cc2cc(C)ccc2nc1OC` (single isomer, unassigned) [Compound 151] are 1.7 µg/mL (≈ 3.63 µM) and 2.12 µg/mL (≈ 4.52 µM).
The corresponding values for `COc1nc2ccc(C)cc2cc1C(c1ccccc1)C(O)(CCCCCN(C)C)c1ccccc1` (single isomer, unassigned) [Compound 153] are 3.8 µg/mL (≈ 7.87 µM) and 7.65 µg/mL (≈ 15.8 µM).
Take `COc1nc2ccc(Br)cc2cc1C(c1ccccc1)C(O)(CCCCCN(C)C)c1ccccc1` (single isomer, unassigned) [Compound 155]: the “IC90 (μg/ml) STA 29213” value in test [1] stood at 1.7 µg/mL (≈ 3.1 µM). Also, the “IC90 (μg/ml) SPN 6305” value in test [2] worked out at 1.7 µg/mL (≈ 3.1 µM).
On to `COc1ccc(C(c2cc3cc(Br)ccc3nc2OC)C(O)(CCCCN(C)C)c2ccc3ccccc3c2)cc1` (single isomer, unassigned) [Compound 157], for which the “IC90 (μg/ml) STA 29213” value in test [1] stood at 2.44 µg/mL (≈ 3.98 µM). Further, the “IC90 (μg/ml) SPN 6305” value in test [2] is 2.74 µg/mL (≈ 4.47 µM).
With `COc1nc2ccccc2cc1C(c1cccc(Br)c1)C(O)(CCCCN(C)C)c1ccc2ccccc2c1` (single isomer, unassigned) [Compound 160], the “IC90 (μg/ml) STA 29213” value in test [1] was found to be 1.85 µg/mL (≈ 3.17 µM). Also, in test [2], the “IC90 (μg/ml) SPN 6305” value was determined as 2.07 µg/mL (≈ 3.55 µM).
In the case of `COc1nc2ccccc2cc1C(c1cccc(Br)c1)C(O)(CCCCN(C)C)c1ccc2ccccc2c1` (single isomer, unassigned) [Compound 161], the “IC90 (μg/ml) STA 29213” value in test [1] amounted to 1.85 µg/mL (≈ 3.17 µM). The “IC90 (μg/ml) SPN 6305” value in test [2] turned out to be 2.07 µg/mL (≈ 3.55 µM).
For `COc1nc2ccccc2cc1C(c1cccc(Br)c1)C(O)(CCCCN(C)C)c1ccc2ccccc2c1` (single isomer, unassigned) [Compound 162] the same measures were 1.85 µg/mL (≈ 3.17 µM) and 2.07 µg/mL (≈ 3.55 µM).
Turning to `COc1nc2ccc(Br)cc2cc1C(c1cccc(Cl)c1)C(O)(CCCCN(C)C)c1ccc2ccccc2c1` (single isomer, unassigned) [Compound 163], the “IC90 (μg/ml) STA 29213” value in test [1] came out at 1 µg/mL (≈ 1.62 µM). Also, the “IC90 (μg/ml) SPN 6305” value in test [2] was determined as 0.31 µg/mL (≈ 0.502 µM).
For `COc1nc2ccc(Br)cc2cc1C(c1ccc(Cl)cc1)C(O)(CCCCN(C)C)c1ccc2ccccc2c1` (single isomer, unassigned) [Compound 164] the same measures were 1.4 µg/mL (≈ 2.27 µM) and 0.31 µg/mL (≈ 0.502 µM).
For `COc1ccc(C(c2cc3cc(Br)ccc3nc2OC)C(O)(CCCCN2CCCCC2)c2ccccc2)cc1` (single isomer, unassigned) [Compound 165] the same measures were 3.81 µg/mL (≈ 6.31 µM) and 1.91 µg/mL (≈ 3.16 µM).
